{"source": "PubChem BioAssay (NCI)", "note": "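Results reflect a 48-hour exposure of cells in 96-well plates to compound at five concentrations. Definition used: TGI = concentration required for complete inhibition of growth.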"}
{"system": "M14 melanoma", "assay": "inhibition of tumour cell growth, NCI panel, 48 h", "units": {"TGI": "µM"}}
{"smiles": "COc1cc(OC)c2c(=O)cc(-c3ccc(OC)c(OC)c3OC)oc2c1", "TGI": "> 100"}
{"smiles": "O=C(O)C(Cl)(Cl)Cl", "TGI": "> 100"}
{"system": "HOP-18 NSCLC", "assay": "inhibition of tumour cell growth, NCI panel, 48 h", "units": {"TGI": "µM"}}
{"smiles": "C=CCCCCC1CCC2CCC(CCCCC=C)N12", "note": "(configuration not stated)", "TGI": 60.9}
{"smiles": "CCCCCCCCCCCCCCCC(=O)OCCOCCOCCOCc1ccccc1", "TGI": "> 100"}
{"smiles": "O=C(O)C(Cl)(Cl)Cl", "TGI": "> 100"}
{"system": "OVCAR-3 ovarian", "assay": "inhibition of tumour cell growth, NCI panel, 48 h", "units": {"TGI": "µM"}}
{"smiles": "C=CCCCCC1CCC2CCC(CCCCC=C)N12", "note": "(configuration not stated)", "TGI": 30.2}
{"smiles": "COc1cc(OC)c2c(=O)cc(-c3ccc(OC)c(OC)c3OC)oc2c1", "TGI": "> 100"}
{"smiles": "CCCCCCCCCCCCCCCC(=O)OCCOCCOCCOCc1ccccc1", "TGI": "> 100"}
{"system": "SK-MEL-28 melanoma", "assay": "inhibition of tumour cell growth, NCI panel, 48 h", "units": {"TGI": "µM"}}
{"smiles": "C=CCCCCC1CCC2CCC(CCCCC=C)N12", "note": "(configuration not stated)", "TGI": 32.2}
{"smiles": "COc1cc(OC)c2c(=O)cc(-c3ccc(OC)c(OC)c3OC)oc2c1", "TGI": "> 100"}
{"smiles": "CCCCCCCCCCCCCCCC(=O)OCCOCCOCCOCc1ccccc1", "TGI": "> 100"}
{"smiles": "O=C(O)C(Cl)(Cl)Cl", "TGI": "> 100"}
{"system": "MALME-3M melanoma", "assay": "inhibition of tumour cell growth, NCI panel, 48 h", "units": {"TGI": "µM"}}
{"smiles": "C=CCCCCC1CCC2CCC(CCCCC=C)N12", "note": "(configuration not stated)", "TGI": 31.8}
{"smiles": "COc1cc(OC)c2c(=O)cc(-c3ccc(OC)c(OC)c3OC)oc2c1", "TGI": "> 100"}
{"smiles": "CCCCCCCCCCCCCCCC(=O)OCCOCCOCCOCc1ccccc1", "TGI": "> 100"}
{"smiles": "O=C(O)C(Cl)(Cl)Cl", "TGI": "> 100"}
{"system": "SK-MEL-5 melanoma", "assay": "inhibition of tumour cell growth, NCI panel, 48 h", "units": {"TGI": "µM"}}
{"smiles": "C=CCCCCC1CCC2CCC(CCCCC=C)N12", "note": "(configuration not stated)", "TGI": 26.9}
{"smiles": "CCCCCCCCCCCCCCCC(=O)OCCOCCOCCOCc1ccccc1", "TGI": "> 100"}
{"smiles": "O=C(O)C(Cl)(Cl)Cl", "TGI": "> 100"}
{"system": "K-562 leukemia", "assay": "inhibition of tumour cell growth, NCI panel, 48 h", "units": {"TGI": "µM"}}
{"smiles": "C=CCCCCC1CCC2CCC(CCCCC=C)N12", "note": "(configuration not stated)", "TGI": 42.1}
{"smiles": "COc1cc(OC)c2c(=O)cc(-c3ccc(OC)c(OC)c3OC)oc2c1", "TGI": "> 100"}
{"smiles": "O=C(O)C(Cl)(Cl)Cl", "TGI": "> 100"}
{"system": "XF 498 CNS", "assay": "inhibition of tumour cell growth, NCI panel, 48 h", "units": {"TGI": "µM"}}
{"smiles": "COc1cc(OC)c2c(=O)cc(-c3ccc(OC)c(OC)c3OC)oc2c1", "TGI": "> 100"}
{"smiles": "CCCCCCCCCCCCCCCC(=O)OCCOCCOCCOCc1ccccc1", "TGI": "> 100"}
{"smiles": "O=C(O)C(Cl)(Cl)Cl", "TGI": "> 100"}
{"system": "OVCAR-5 ovarian", "assay": "inhibition of tumour cell growth, NCI panel, 48 h", "units": {"TGI": "µM"}}
{"smiles": "COc1cc(OC)c2c(=O)cc(-c3ccc(OC)c(OC)c3OC)oc2c1", "TGI": "> 100"}
{"smiles": "CCCCCCCCCCCCCCCC(=O)OCCOCCOCCOCc1ccccc1", "TGI": "> 100"}
{"smiles": "O=C(O)C(Cl)(Cl)Cl", "TGI": "> 100"}
{"system": "NCI-H226 lung", "assay": "inhibition of tumour cell growth, NCI panel, 48 h", "units": {"TGI": "µM"}}
{"smiles": "C=CCCCCC1CCC2CCC(CCCCC=C)N12", "note": "(configuration not stated)", "TGI": 34.1}
{"smiles": "COc1cc(OC)c2c(=O)cc(-c3ccc(OC)c(OC)c3OC)oc2c1", "TGI": "> 100"}
{"smiles": "CCCCCCCCCCCCCCCC(=O)OCCOCCOCCOCc1ccccc1", "TGI": "> 100"}
{"smiles": "O=C(O)C(Cl)(Cl)Cl", "TGI": "> 100"}
{"system": "HOP-92 NSCLC", "assay": "inhibition of tumour cell growth, NCI panel, 48 h", "units": {"TGI": "µM"}}
{"smiles": "C=CCCCCC1CCC2CCC(CCCCC=C)N12", "note": "(configuration not stated)", "TGI": 22.8}
{"smiles": "COc1cc(OC)c2c(=O)cc(-c3ccc(OC)c(OC)c3OC)oc2c1", "TGI": "> 100"}
{"smiles": "CCCCCCCCCCCCCCCC(=O)OCCOCCOCCOCc1ccccc1", "TGI": 69.4}
{"smiles": "O=C(O)C(Cl)(Cl)Cl", "TGI": "> 100"}
{"system": "NCI-H23 lung", "assay": "inhibition of tumour cell growth, NCI panel, 48 h", "units": {"TGI": "µM"}}
{"smiles": "COc1cc(OC)c2c(=O)cc(-c3ccc(OC)c(OC)c3OC)oc2c1", "TGI": "> 100"}
{"smiles": "CCCCCCCCCCCCCCCC(=O)OCCOCCOCCOCc1ccccc1", "TGI": "> 100"}
{"smiles": "O=C(O)C(Cl)(Cl)Cl", "TGI": "> 100"}
{"system": "A549 NSCLC", "assay": "inhibition of tumour cell growth, NCI panel, 48 h", "units": {"TGI": "µM"}}
{"smiles": "C=CCCCCC1CCC2CCC(CCCCC=C)N12", "note": "(configuration not stated)", "TGI": 30}
{"smiles": "COc1cc(OC)c2c(=O)cc(-c3ccc(OC)c(OC)c3OC)oc2c1", "TGI": "> 100"}
{"smiles": "CCCCCCCCCCCCCCCC(=O)OCCOCCOCCOCc1ccccc1", "TGI": "> 100"}
{"smiles": "O=C(O)C(Cl)(Cl)Cl", "TGI": "> 100"}
{"system": "SNB-19 CNS", "assay": "inhibition of tumour cell growth, NCI panel, 48 h", "units": {"TGI": "µM"}}
{"smiles": "C=CCCCCC1CCC2CCC(CCCCC=C)N12", "note": "(configuration not stated)", "TGI": 35.3}
{"smiles": "COc1cc(OC)c2c(=O)cc(-c3ccc(OC)c(OC)c3OC)oc2c1", "TGI": "> 100"}
{"smiles": "CCCCCCCCCCCCCCCC(=O)OCCOCCOCCOCc1ccccc1", "TGI": "> 100"}
{"smiles": "O=C(O)C(Cl)(Cl)Cl", "TGI": "> 100"}
